# According to patent US20260297081A1, “COMPOUNDS AND METHODS OF TREATING CANCERS” (Cullgen Inc., priority 2023, published 2026):
# System: MCF7 cells
# Assay: Anti-proliferation (viability) of MCF7 cells (Table 7, FIG. 2B)
# Assay type: cell-based
# Details: Homo sapiens, MCF7, MCF7 cells, 3-6 days, 10-point serial dilution; read-out: GI IC50 in MCF-7
row,SMILES,IC50 [nM]
1,"CC(=O)c1c(C)c2cnc(Nc3ccc(N4CCC(NCC(=O)N5CC(Nc6nc(NC(C)C)ccc6C(=O)Nc6ccc(N(C)C)nn6)C5)CC4)cn3)nc2n(C2CCCC2)c1=O [CPD-356, 2-((1-((1-(6-((6-acetyl-8-cyclopentyl-5-methyl-7-oxo-7,8-dihydropyrido[2,3-d]pyrimidin-2-yl)amino)pyridin-3-yl)piperidin-4-yl)glycyl)azetidin-3-yl)amino)-N-(6-(dimethylamino)pyridazin-3-yl)-6-(isopropylamino)nicotinamide]",50 to 100
2,"CC(=O)c1c(C)c2cnc(Nc3ccc(N4CCC(NCC(=O)N5CCC(Nc6nc(NC(C)C)ccc6C(=O)Nc6ccc(N(C)C)nn6)CC5)CC4)cn3)nc2n(C2CCCC2)c1=O [CPD-357, 2-((1-((1-(6-((6-acetyl-8-cyclopentyl-5-methyl-7-oxo-7,8-dihydropyrido[2,3-d]pyrimidin-2-yl)amino)pyridin-3-yl)piperidin-4-yl)glycyl)piperidin-4-yl)amino)-N-(6-(dimethylamino)pyridazin-3-yl)-6-(isopropylamino)nicotinamide]",< 50
3,"[2H]C([2H])([2H])Nc1ccc(C(=O)Nc2cc(C)on2)c(NC2CC(C(C)NC(=O)CN3CCN(c4ccc(Nc5ncc6c(C)c(C(C)=O)c(=O)n(C7CCCC7)c6n5)nc4)CC3)C2)n1 (stereo not shown) [CPD-361, 2-((3-(1-(2-(4-(6-((6-acetyl-8-cyclopentyl-5-methyl-7-oxo-7,8-dihydropyrido[2,3-d]pyrimidin-2-yl)amino)pyridin-3-yl)piperazin-1-yl)acetamido)ethyl)cyclobutyl)amino)-6-((methyl-d3)amino)-N-(5-methylisoxazol-3-yl)nicotinamide]",> 100
4,"CNc1ccc(C(=O)Nc2ccc(N(C)C)nn2)c(NC2CC3(C2)CC(C(=O)N2CC(N4CCN(c5ccc(Nc6ncc7c(C)c(C(C)=O)c(=O)n(C8CCCC8)c7n6)nc5)CC4)C2)C3)n1 (stereo not shown) [CPD-362, 2-((6-(3-(4-(6-((6-acetyl-8-cyclopentyl-5-methyl-7-oxo-7,8-dihydropyrido[2,3-d]pyrimidin-2-yl)amino)pyridin-3-yl)piperazin-1-yl)azetidine-1-carbonyl)spiro[3.3]heptan-2-yl)amino)-N-(6-(dimethylamino)pyridazin-3-yl)-6-(methylamino)nicotinamide]",> 100
5,CNc1ccc(C(=O)Nc2ccc(N(C)C)nn2)c(NC2CC3(C2)CC(C(=O)N2CC4(CCN(c5ccc(Nc6ncc7c(C)c(C(C)=O)c(=O)n(C8CCCC8)c7n6)nc5)CC4)C2)C3)n1 (stereo not shown) [CPD-363],> 100
6,"CNc1ccc(C(=O)Nc2ccc(N(C)C)nn2)c(NC2CC3(C2)CN(C(=O)C2CN(C4CCN(c5ccc(Nc6ncc7c(C)c(C(C)=O)c(=O)n(C8CCCC8)c7n6)nc5)CC4)C2)C3)n1 [CPD-364, 2-((2-(1-(1-(6-((6-acetyl-8-cyclopentyl-5-methyl-7-oxo-7,8-dihydropyrido[2,3-d]pyrimidin-2-yl)amino)pyridin-3-yl)piperidin-4-yl)azetidine-3-carbonyl)-2-azaspiro[3.3]heptan-6-yl)amino)-N-(6-(dimethylamino)pyridazin-3-yl)-6-(methylamino)nicotinamide]",> 100
7,"CC(=O)c1c(C)c2cnc(Nc3ccc(N4CCN(C(C)CC(=O)NC5CC(Nc6nc(NC(C)C)ccc6C(=O)Nc6ccc(N(C)C)nn6)C5)CC4)cn3)nc2n(C2CCCC2)c1=O (stereo not shown) [CPD-365, 2-((3-(3-(4-(6-((6-acetyl-8-cyclopentyl-5-methyl-7-oxo-7,8-dihydropyrido[2,3-d]pyrimidin-2-yl)amino)pyridin-3-yl)piperazin-1-yl)butanamido)cyclobutyl)amino)-N-(6-(dimethylamino)pyridazin-3-yl)-6-(isopropylamino)nicotinamide]",< 50
8,"CC(=O)c1c(C)c2cnc(Nc3ccc(N4CCN(C5(C(=O)NC6CC7(C6)CC(Nc6nc(NC(C)C)ccc6C(=O)Nc6cn(C)c(C8CC8)n6)C7)CC5)CC4)cn3)nc2n(C2CCCC2)c1=O (stereo not shown) [CPD-366, 2-((6-(1-(4-(6-((6-acetyl-8-cyclopentyl-5-methyl-7-oxo-7,8-dihydropyrido[2,3-d]pyrimidin-2-yl)amino)pyridin-3-yl)piperazin-1-yl)cyclopropane-1-carboxamido)spiro[3.3]heptan-2-yl)amino)-N-(2-cyclopropyl-1-methyl-1H-imidazol-4-yl)-6-(isopropylamino)nicotinamide]",> 100
9,"CC(=O)c1c(C)c2cnc(Nc3ccc(N4CCN(CC(=O)N5CCC(Nc6nc(NC(C)C)ccc6C(=O)Nc6ccc(N(C)C)nn6)CC5)CC4)cn3)nc2n(C2CCCC2)c1=O [CPD-369, 2-((1-(2-(4-(6-((6-acetyl-8-cyclopentyl-5-methyl-7-oxo-7,8-dihydropyrido[2,3-d]pyrimidin-2-yl)amino)pyridin-3-yl)piperazin-1-yl)acetyl)piperidin-4-yl)amino)-N-(6-(dimethylamino)pyridazin-3-yl)-6-(isopropylamino)nicotinamide]",50 to 100
10,"CC(=O)c1c(C)c2cnc(Nc3ccc(N4CCN(C(C)CC(=O)N5CCC(Nc6nc(NC(C)C)ccc6C(=O)Nc6ccc(N(C)C)nn6)C5)CC4)cn3)nc2n(C2CCCC2)c1=O (stereo not shown) [CPD-370, 2-((1-(3-(4-(6-((6-acetyl-8-cyclopentyl-5-methyl-7-oxo-7,8-dihydropyrido[2,3-d]pyrimidin-2-yl)amino)pyridin-3-yl)piperazin-1-yl)butanoyl)pyrrolidin-3-yl)amino)-N-(6-(dimethylamino)pyridazin-3-yl)-6-(isopropylamino)nicotinamide]",< 50
11,"CC(=O)c1c(C)c2cnc(Nc3ccc(N4CCN(C5(C(=O)NC6CC7(C6)CC(Nc6nc(NC(C)C)ccc6C(=O)Nc6cc(C)on6)C7)CC5)CC4)cn3)nc2n(C2CCCC2)c1=O (stereo not shown) [CPD-371, 2-((6-(1-(4-(6-((6-acetyl-8-cyclopentyl-5-methyl-7-oxo-7,8-dihydropyrido[2,3-d]pyrimidin-2-yl)amino)pyridin-3-yl)piperazin-1-yl)cyclopropane-1-carboxamido)spiro[3.3]heptan-2-yl)amino)-6-(isopropylamino)-N-(5-methylisoxazol-3-yl)nicotinamide]",> 100
12,"CC(=O)c1c(C)c2cnc(Nc3ccc(N4CCC(NCC(=O)N5CCC(Nc6nc(NC(C)C)ccc6C(=O)Nc6ccc(N(C)C)nn6)C5)CC4)cn3)nc2n(C2CCCC2)c1=O (stereo not shown) [CPD-372, 2-((1-((1-(6-((6-acetyl-8-cyclopentyl-5-methyl-7-oxo-7,8-dihydropyrido[2,3-d]pyrimidin-2-yl)amino)pyridin-3-yl)piperidin-4-yl)glycyl)pyrrolidin-3-yl)amino)-N-(6-(dimethylamino)pyridazin-3-yl)-6-(isopropylamino)nicotinamide]",> 100
13,"CNc1ccc(C(=O)Nc2ccc(N(C)C)nn2)c(NC2CC3(C2)CC(C(=O)NC2CC4(CCN(c5ccc(Nc6ncc7c(C)c(C(C)=O)c(=O)n(C8CCCC8)c7n6)nc5)CC4)C2)C3)n1 (stereo not shown) [CPD-374, 2-((6-((7-(6-((6-acetyl-8-cyclopentyl-5-methyl-7-oxo-7,8-dihydropyrido[2,3-d]pyrimidin-2-yl)amino)pyridin-3-yl)-7-azaspiro[3.5]nonan-2-yl)carbamoyl)spiro[3.3]heptan-2-yl)amino)-N-(6-(dimethylamino)pyridazin-3-yl)-6-(methylamino)nicotinamide]",> 100
